{"source": "patent US20260294883A1", "about": "“PHARMACEUTICAL COMPOSITION FOR THE TREATMENT OF POST-TRAUMATIC STRESS SYNDROME” (KINNOV THERAPEUTICS, priority 2022, published 2026)", "key": {"[1]": {"settings": "Azevedo et al., Neuropharmacology 164 (2020) 107912; cited from earlier work"}, "[2]": {"experiment": "conditioned fear test, Example 1 (freezing index 3 days after conditioning)", "type": "in vivo, rodents", "settings": "for p (freezing index, versus control group) / Freezing index / Freezing index, % vs witness: 3 days after conditioning, n = 10; for Freezing index: Mean ± SEM, witnesses 62.12 ± 9.93; for Freezing index, % vs witness: witnesses 100.00", "description": "(§1) The conditioned fear test in rodents is recognized as a relevant preclinical model for the study of post-traumatic stress disorders.\n(§2) During this test, animals are placed for a 4.5-minute conditioning session in a square box with a stainless steel mesh floor connected to a shock generator.\n(§3) A conditioned stimulus (CS) consisting of a sound (80 dB, 2800 Hz, 30 seconds) is presented twice (at 1.5 min and then at 3.5 min).\n(§4) An unconditioned stimulus consisting of an electric shock to the paws is delivered at the end of each CS (2 seconds, 0.6 mA).\n(§5) The animals were then subjected to memory test sessions of the stressful event on different days after the session of packaging. The sessions of test of memorization (duration of 6 min) comprise a first period of 3 minutes without none CS presentation (period CS−) followed by a second 3 minute period during which the CS is presented (period CS+).\n(§6) The sound stimulus alone triggers conditioned fear behavior. In rodents, this behavior is manifested by a prostrate attitude, an immobility behavior (i.e. «freezing») that is distinguished from the animal's exploratory behavior when placed in an enclosure for a short period.\n(§7) The analyzed data are the time of immobility during the period CS− and during the period CS+. The freezing index is defined as the difference in immobility time between the period with the sound stimulus and the period without the sound. Therefore, the higher this index, the greater the post-traumatic stress state.\n(§8) The «sham» group received no shock. The treatments were administered immediately after the conditioning session, and then 30 minutes before each conditioned fear session (no shock, but with the conditioned stimulus).\n(§9) This test measures the effect of stress and its environment and its memorization (i.e. extinction)."}, "[3]": {"experiment": "conditioned fear test, Example 3 (comparison with paroxetine)", "type": "in vivo, rodents", "settings": "for Freezing index Day 1 / Freezing index Day 3 / Freezing index Day 4: n = 10; for Freezing index Day 1: witnesses 53.3 ± 5.7; for Freezing index Day 3: witnesses 38.1 ± 8.7; for Freezing index Day 4: Day 4, treatment stopped after day 3, witnesses 56.2 ± 9.8", "description": "as §1, §2, §3, §4, §5, §6, §7, §8, §9\nThe protocol is identical to that of Example 1 above. In this example, the conditioned fear sessions and the freezing measurement are carried out on days 1, 3 and 4 after the conditioning session. The treatment is stopped after day 3, so that during the 4th observation session, no treatment is administered."}}, "note": "Structures can show the parent of a compound that is named as a salt."}
{"smiles": "COc1ccccc1N1CCN(CCn2cnc3ccccc3c2=O)CC1", "note": "[ACH-000029]", "values": [{"measurement": "efficacy versus prazosin alone", "setting": "[1]", "value": "more effective than prazosin alone"}]}
{"smiles": "CN1CCC(=C2c3ccccc3C=Cc3ccccc32)CC1", "note": "[Cyproheptadine, 4-(5-H-dibenzo[a,d]cyclohepten-5-ylidene)-1-methylpiperidine hydrochloride]", "values": [{"measurement": "p (freezing index, versus control group)", "setting": "[2]; 0.5 mg/kg", "value": "ns"}, {"measurement": "Freezing index", "setting": "[2]; 0.5 mg/kg", "value": "38.68 ± 5.84", "unit": "s"}, {"measurement": "Freezing index, % vs witness", "setting": "[2]; 0.5 mg/kg", "value": 62.28, "unit": "%"}]}
{"smiles": "Fc1ccc([C@@H]2CCNC[C@H]2COc2ccc3c(c2)OCO3)cc1", "note": "[Paroxetine]", "values": [{"measurement": "Freezing index Day 1", "setting": "[3]; 4 mg/kg", "value": 64.5, "unit": "s"}, {"measurement": "Freezing index Day 3", "setting": "[3]; 4 mg/kg", "value": 44.3, "unit": "s"}, {"measurement": "Freezing index Day 4", "setting": "[3]; 4 mg/kg", "value": 38.9, "unit": "s"}, {"measurement": "Freezing index Day 1", "setting": "[3]; 8 mg/kg", "value": 51.3, "unit": "s"}, {"measurement": "Freezing index Day 3", "setting": "[3]; 8 mg/kg", "value": 33.1, "unit": "s"}, {"measurement": "Freezing index Day 4", "setting": "[3]; 8 mg/kg", "value": 50.3, "unit": "s"}, {"measurement": "effect on the memory component and impact of the stressful event / anxious reaction, in words", "setting": "[3]; Example 3 conclusion", "value": "no significant effect"}]}
{"smiles": "COc1cc2nc(N3CCN(C(=O)c4ccco4)CC3)nc(N)c2cc1OC", "note": "[Prazosin, 2-[4-(2-furoyl)piperazin-1-yl]-6,7-dimethoxyquinazolin-4-amine]", "values": [{"measurement": "p (freezing index, versus control group)", "setting": "[2]; 0.5 mg/kg", "value": "ns"}, {"measurement": "Freezing index", "setting": "[2]; 0.5 mg/kg", "value": "41.97 ± 5.82", "unit": "s"}, {"measurement": "Freezing index, % vs witness", "setting": "[2]; 0.5 mg/kg", "value": 67.57, "unit": "%"}, {"measurement": "p (freezing index, versus control group)", "setting": "[2]; 1 mg/kg", "value": "ns"}, {"measurement": "Freezing index", "setting": "[2]; 1 mg/kg", "value": "35.29 ± 12.22", "unit": "s"}, {"measurement": "Freezing index, % vs witness", "setting": "[2]; 1 mg/kg", "value": 56.80, "unit": "%"}, {"measurement": "effect on post-traumatic stress syndrome, in words", "setting": "[2]; Example 1 conclusion, conditioned fear test", "value": "does not allow the treatment of post-traumatic stress syndrome"}]}
